Measurements: patent publication US6054429A (priority 1996, dated 2000)

System: formalin flinch response in rats
Settings: rat, in vivo

COc1ccc([C@@H]2Sc3ccccc3N(CCN(C)C)C(=O)[C@@H]2OC(C)=O)cc1 [diltiazem]
effect on Phase 1 response (in words): without effect | effect on Phase 2 response (in words): without effect

COC(=O)C1=C(C)NC(C)=C(C(=O)OC)C1c1ccccc1[N+](=O)[O-] [nifedipine]
effect on Phase 1 response (in words): without effect | effect on Phase 2 response (in words): without effect

COCCOC(=O)C1=C(C)NC(C)=C(C(=O)OC(C)C)C1c1cccc([N+](=O)[O-])c1 (centres unmarked) [nimodipine]
effect on Phase 1 response (in words): without effect | effect on Phase 2 response (in words): without effect

COc1ccc(CCN(C)CCCC(C#N)(c2ccc(OC)c(OC)c2)C(C)C)cc1OC (centres unmarked) [verapamil]
effect on Phase 1 response (in words): without effect | effect on Phase 2 response (in words): without effect
